Here are results for ten compounds from patent US11634425B2, “Pharmaceutical compounds” (priority 2019, dated 2023).

For orientation: pEC50 means −log10 of the EC50, conventionally taken in molar units. One may read the CC50 as the concentration that lowers cell viability or growth by half.

Data set [1] has as its system RSV A2. Put plainly: RSV plaque reduction assay. The format is cell-based, respiratory syncytial virus (RSV). As to conditions: human respiratory syncytial virus, HepG2, Hep-G2 cells, mean of at least two experiments. How it is done:
(§1) Compounds were subjected to RSV plaque reduction assays according to the following protocol. Plaque EC50 and cell toxicity CC50 values are a mean of at least two experiments and figures are rounded to whole units.
Hep-G2 cells (ECACC, 85011430) were passaged in flasks and seeded in 24-well plates in DMEM containing antibiotics and supplemented with 10% FBS. During inoculation and subsequent incubation, cells were cultured in DMEM containing 2% FBS. 100 plaque forming unit/well of RSV (RSV A2 ECACC, 0709161v) was mixed with eight serial dilutions of compound. Subsequently, 100 μL of the virus/compound mixtures was added to confluent Hep-G2 cell monolayers. The cells and virus/compound mixtures were incubated at 37° C. in a humidified 5% CO2 incubator for 2 h prior to removal of the inoculum and addition of 1 mL of overlay (DMEM containing 2% FBS and 0.8% CMC) containing compound dilutions. The cells and were incubated at 37° C. in a humidified 5% CO2 incubator for 2 days.
Cells were washed with PBS before adding 75/25% […] EtOH/MeOH, for 3 min. Fixative was removed and plates were washed with PBS. A pre-titrated amount of the primary antibody was added in 200 μL PBS/2% milk powder, and plates incubated for 90 min at 37° C. The plates were washed 3 times with PBS/0.05% Tween20 before addition of rabbit anti-goat horse radish peroxidase in 200 μL PBS/2% milk powder, and incubated for 1 h at 37° C. Following three wash steps with PBS/0.05% Tween20, 200 μL ready-to-use TrueBlue was added and plates were incubated at rt for 10-15 min before washing with water. After removal of water, plates were air-dried in the dark.
(§2) Plates were scanned and analysed using the Immunospot S6 Macro analyser, which is equipped with BioSpot analysis software for counting immunostained plaques (virospots). Plaque counts were used to calculate % c infection relative to the mean of the plaque count in the virus control wells for RSV. The EC50 value was calculated as 50% reduction in signal, respectively, by interpolation of inhibition curves fitted with a 4-parameter nonlinear regression with a variable slope in Dotmatics. Plaque EC50 and cell toxicity CC50 values are a mean of at least two experiments and figures are rounded to whole units.

Data set [2] can be described thus: Cell cytotoxicity (CC50). The format is cell-based. As to conditions: human; mean of at least two experiments.
Text: as §1, §2

pEC50: −log10 of the molar value.

With `C[C@H]1COCCN1c1ccc(-c2nn3cccnc3c2C(=O)N[C@H]2N=C(c3ccccc3)c3ccccc3NC2=O)cn1` (single isomer, unassigned) [Example 124, 2-(6-[(3S*)-3-methylmorpholin-4-yl]pyridin-3-yl)-N-[(3S)-2-oxo-5-phenyl-2,3-dihydro-1H-1,4-benzodiazepin-3-yl]pyrazolo[1,5-a]pyrimidine-3-carboxamide], the negative logarithm of the EC50 (pEC50) in data set [1] is 7.08. The same compound came in with a cytotoxic concentration (CC50) in data set [2] of more than 25000 nM.

In the case of `C[C@H]1COCCN1c1ccc(-c2nn3cccnc3c2C(=O)N[C@H]2N=C(c3ccccc3)c3cccc(F)c3NC2=O)cn1` (single isomer, unassigned) [Example 125, N-[(3S)-9-fluoro-2-oxo-5-phenyl-2,3-dihydro-1H-1,4-benzodiazepin-3-yl]-2-{6-[(3S*)-3-methylmorpholin-4-yl]pyridin-3-yl}pyrazolo[1,5-a]pyrimidine-3-carboxamide], the pEC50 in data set [1] was 7.06. In data set [2], this compound yielded a half-maximal cytotoxic concentration (CC50) of more than 25000 nM.

The compound `O=C(N[C@H]1N=C(c2ccccc2)c2ccccc2NC1=O)c1c(-c2cc(F)ccc2F)nn2cccnc12` [Example 6, 2-(2,5-Difluorophenyl)-N-[(3S)-2-oxo-5-phenyl-1,3-dihydro-1,4-benzodiazepin-3-yl]pyrazolo[1,5-a]pyrimidine-3-carboxamide] had a pEC50 in data set [1] of 7.03. The 50% cytotoxic concentration (CC50) in data set [2] is more than 25000 nM.

Compound `COc1ccc(F)c(-c2nn3cccnc3c2C(=O)N[C@H]2N=C(c3ccccc3)c3cccc(F)c3NC2=O)c1` [Example 8, 2-(2-Fluoro-5-methoxyphenyl)-N-[(3S)-9-fluoro-2-oxo-5-phenyl-1,3-dihydro-1,4-benzodiazepin-3-yl]pyrazolo[1,5-a]pyrimidine-3-carboxamide] showed a pEC50 in data set [1] of 7.27. Moreover, the CC50 in data set [2] was more than 25000 nM.

Consider `COc1cccc(-c2nn3cccnc3c2C(=O)N[C@H]2N=C(c3ccccc3)c3cccc(F)c3NC2=O)c1F` [Example 9, 2-(2-Fluoro-3-methoxyphenyl)-N-[(3S)-9-fluoro-2-oxo-5-phenyl-1,3-dihydro-1,4-benzodiazepin-3-yl]pyrazolo[1,5-a]pyrimidine-3-carboxamide], for which, in data set [1], the pEC50 is 7.14. The half-maximal cytotoxic concentration (CC50) in data set [2] is more than 25000 nM.

In data set [1], `CC(C)Nc1ccc(-c2nn3cccnc3c2C(=O)N[C@H]2N=C(c3ccccc3)c3ccccc3NC2=O)cc1` [Example 13, N-[(3S)-2-Oxo-5-phenyl-1,3-dihydro-1,4-benzodiazepin-3-yl]-2-[4-(propan-2-ylamino)phenyl]pyrazolo[1,5-a]pyrimidine-3-carboxamide] gave a pEC50 of 7.03. In data set [2], this compound returned a CC50 of more than 25000 nM.

In data set [1], `CC(C)Oc1ccc(-c2nn3cccnc3c2C(=O)N[C@H]2N=C(c3ccccc3)c3ccccc3NC2=O)c(F)c1` [Example 15, 2-(2-Fluoro-4-propan-2-yloxyphenyl)-N-[(3S)-2-oxo-5-phenyl-1,3-dihydro-1,4-benzodiazepin-3-yl]pyrazolo[1,5-a]pyrimidine-3-carboxamide] showed a pEC50 of 7.04. In addition, in data set [2], the CC50 was more than 25000 nM.

Turning to `Cc1ccn2nc(-c3ccccc3F)c(C(=O)N[C@H]3N=C(c4ccccc4)c4ccccc4NC3=O)c2n1` [Example 22, 2-(2-Fluorophenyl)-5-methyl-N-[(3S)-2-oxo-5-phenyl-1,3-dihydro-1,4-benzodiazepin-3-yl]pyrazolo[1,5-a]pyrimidine-3-carboxamide], the pEC50 in data set [1] is 7.48. Also, the cytotoxic concentration (CC50) in data set [2] was more than 25000 nM.

Compound `Cc1ccc(F)c(-c2nn3cccnc3c2C(=O)N[C@H]2N=C(c3ccccc3)c3ccccc3NC2=O)c1` [Example 25, 2-(2-Fluoro-5-methylphenyl)-N-[(3S)-2-oxo-5-phenyl-1,3-dihydro-1,4-benzodiazepin-3-yl]pyrazolo[1,5-a]pyrimidine-3-carboxamide] had a negative-log EC50 (pEC50) in data set [1] of 6.94. The same compound showed a 50% cytotoxic concentration (CC50) in data set [2] of 15400 nM.

Compound `Cc1ccc(F)c(-c2nn3cccnc3c2C(=O)N[C@H]2N=C(c3ccccc3)c3cccc(F)c3NC2=O)c1` [Example 26, 2-(2-Fluoro-5-methylphenyl)-N-[(3S)-9-fluoro-2-oxo-5-phenyl-1,3-dihydro-1,4-benzodiazepin-3-yl]pyrazolo[1,5-a]pyrimidine-3-carboxamide] had a pEC50 in data set [1] of 7.28. Moreover, it took 8770 nM to reach half-maximal cytotoxicity in data set [2] (CC50).
